In publication PMC8198181, “Evaluation of Substituted N-Phenylpiperazine Analogs as D3 vs. D2 Dopamine Receptor Subtype Selective Ligands” (Molecules, 2021):
Several values for one entry are separate records, joined by “and”; a condition that tells them apart may be missing. Equal entries are not always repeated. Entries after “also recorded” stand apart in the source; their conditions may differ. Where two headings read alike, the source gives them in different places.

Assays:
[1] = target: T1, human 5-HT1A receptor (Homo sapiens, UniProt P08908); experiment: 5-HT1A receptor binding ([3H]8-hydroxy-DPAT displacement, CHO-K1 membranes); details: for inhibition at 0.091 µM: single point displacement of [3H]-8-hydroxy-DPAT, 91 nM test compound, CHO-K1, ± S.E.M., n ≥ 3; for 5-HT1A receptor affinity/displacement in words: radioligand displacement assessment at 91 nM
T1 construct: expressed in transfected cells; host or cells: CHO-K1
T1 sequence (P08908 1-422): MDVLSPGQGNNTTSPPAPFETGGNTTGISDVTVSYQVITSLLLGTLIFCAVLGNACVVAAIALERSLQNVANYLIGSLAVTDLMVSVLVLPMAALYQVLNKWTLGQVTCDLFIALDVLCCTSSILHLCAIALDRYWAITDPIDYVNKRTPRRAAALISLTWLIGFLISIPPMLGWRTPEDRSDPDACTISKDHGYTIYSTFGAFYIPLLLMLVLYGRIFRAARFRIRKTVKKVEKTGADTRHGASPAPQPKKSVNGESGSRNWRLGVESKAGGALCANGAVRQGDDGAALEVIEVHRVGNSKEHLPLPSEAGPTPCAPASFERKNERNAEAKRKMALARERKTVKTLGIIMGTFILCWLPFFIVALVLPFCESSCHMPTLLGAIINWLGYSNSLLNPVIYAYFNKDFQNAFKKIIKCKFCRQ
Procedure: Because the 5-HT1A receptor is a commonly observed off-site binding site for benzamide N-phenylpiperazine ligands, compounds were simultaneously screened for binding of our compounds at the human 5-HT1A receptor expressed in CHO-K1 cells, using the radioligand [^3H]-8-hydroxy-DPAT (8-OH-DPAT) (Table 2). Based upon the analysis of the displacement assay shown in Table 2, the orthosteric compounds 3c–f appeared to bind with low affinity at human 5-HT1A receptors.
10 μg of membranes from CHO-K1 cells expressing the human 5-HT1A receptor were suspended in 50 mM Tris-HCl, 10 mM MgSO4, 0.5 mM EDTA, and 0.1% (w/v) ascorbic acid, pH 7.4 and test ligands (91 nM for single point radioligand displacement assay and 1 nM to 1 μM for full competition assay) were incubated with 0.25 nM [^3H]8-hydroxy-DPAT (PerkinElmer, Boston, MA, USA) for 60 min at room temperature. The nonspecific binding was determined using 10 μM metergoline (Sigma, St. Louis, MO, USA). After incubation, the bound ligands were filtered using an M-24 Brandel filtration system (Brandel, Gaithersburg, MD, USA), collected on glass fiber papers (Whatman grade 934-AH, GE Healthcare Bio-Sciences, Pittsburgh, PA, USA), and the radioactivity was quantitated using a MicroBeta2 Microplate scintillation counter 2450 (PerkinElmer, Boston, MA, USA).

[2] = target: T2, D3 dopamine receptor (Homo sapiens, UniProt P35462); details: for D2:D3 Selectivity: ratio of D2 and D3 Ki values (Table 1)
Procedure: Competitive radioligand binding techniques were used to determine the Ki values of ligands at human D2 and D3 dopamine receptors expressed in stably transfected HEK cells (Table 1).
The final radioligand concentration was approximately equal to the Kd value for the binding of the radioligand. […] For each competition curve, triplicates were performed using two concentrations of inhibitor per decade over five orders of magnitude.
The competition curves were modeled for a single binding site using Bs = Bo − ((Bo + L)/(IC50 + L)) where Bs is the amount of ligand bound to receptor and Bo is the amount of ligand bound to receptor in the absence of competitive inhibitor. L is the concentration of the competitive inhibitor. […] The values for Bs and Bo were constrained using experimentally derived values. The IC50 values were converted to equilibrium dissociation constants (Ki) [50, 51]. Mean Ki values ± S.E.M. are reported for at least three independent experiments.

[3] = target: T2, D3 dopamine receptor; experiment: β-arrestin binding assay (DiscoverX PathHunter, DRD3-U2OS cells); format: cell-based; parameters: host or cells: U2OS (PathHunter eXpress DRD3-U2OS); details: human D3, test compound at 10x Ki, normalized to quinpirole
Procedure: (§1) Quinpirole was used as a reference prototypic full agonist and haloperidol was used as a reference prototypic antagonist.
The β-arrestin binding assay was performed using a DiscoverX Pathhunter® kit according to the manufacturer’s instructions. PathHunter® eXpress β-Arrestin GPCR cells are engineered to co-express the ProLink™ (PK) tagged GPCR and the Enzyme Acceptor (EA) tagged β-Arrestin. Activation of the GPCR-PK induces β-Arrestin-EA recruitment, forcing complementation of the two β-galactosidase enzyme fragments (EA and PK). The resulting functional enzyme hydrolyzes substrate to generate a chemiluminescent signal. DRD3-U2OS cells were seeded according to kit instructions into white plastic 96-well plates (provided with the kit) 48 h prior to the assay in a volume of 100 μL/well using the Cell Plating Reagent (CPR) provided. Vehicle or test drug, diluted in CPR, was added to the designated wells and incubated for 90 min at 37 °C. Working detection solution (a component provided with the kit) was added to the wells and incubated for 1 h in the dark at room temperature. As discussed for the cyclase assay, an Enspire Alpha 2390 Multilabel Reader/Luminometer was used to detect the luminescent signal with haloperidol and quinpirole used as reference antagonist and full agonist, respectively.
(§2) Figure 3 Comparison of the Efficacy of Phenylthiophene Analogs for Adenylyl Cyclase Inhibition and β-Arrestin Binding at Human D3 Dopamine Receptors. […] Values were normalized to reference full agonist quinpirole (10,000 nM).

[4] = target: T2, D3 dopamine receptor; experiment: Forskolin-dependent adenylyl cyclase inhibition assay (cAMP-Glo, HEK cells); format: cell-based; parameters: expressed in transfected cells; host or cells: HEK293; details: human D3, test compound at 10x Ki, normalized to quinpirole 10,000 nM
Procedure: as §1
The forskolin-dependent adenylyl cyclase inhibition assay was performed using a cAMP-Glo Assay kit (Promega). For this assay cAMP stimulates protein kinase A (PKA) activity, which leads to a decrease in ATP levels and a decrease in the luciferase-coupled production of light. This is a 96 well plate assay using HEK cells stably transfected to express the human D3 dopamine receptor (10,000 cells/well/0.1 mL complete media). After removing media and rinsing with phosphate buffered saline, cells were incubated with 20 μL of forskolin (6000 nM) and test compound or vehicle. […] After cells, test compound (or vehicle) and forskolin (or vehicle) were incubated for 15 min, cells were lysed using 20 μL lysis buffer (provided with the kit) and mixed for 15 min at room temperature. A cAMP Detection Solution (40 μL) was added to each well, gently mixed for 60 s and incubated at room temperature for 20 min. The Kinase-Glo Solution was added (40 μL) to terminate the PKA reaction. The reaction mixture was gently mixed for 60 s and then incubated at room temperature for 10 min. The remaining ATP was detected via a luciferase reaction. The plates were read using an Enspire Alpha 2390 Multilabel Reader/Luminometer. Haloperidol (200 nM) and quinpirole (10,000 nM) was used as a prototypic reference antagonist and full agonist, respectively.
as §2

[5] = target: human D3 dopamine receptor; details: read-out: Ki D3 (hD3), previously published; Figure 1 and text; cited from earlier work
[6] = target: T2, D3 dopamine receptor; parameters: method as in PMID 15582454; details: cited from earlier work

T2 sequence (P35462 whole entry): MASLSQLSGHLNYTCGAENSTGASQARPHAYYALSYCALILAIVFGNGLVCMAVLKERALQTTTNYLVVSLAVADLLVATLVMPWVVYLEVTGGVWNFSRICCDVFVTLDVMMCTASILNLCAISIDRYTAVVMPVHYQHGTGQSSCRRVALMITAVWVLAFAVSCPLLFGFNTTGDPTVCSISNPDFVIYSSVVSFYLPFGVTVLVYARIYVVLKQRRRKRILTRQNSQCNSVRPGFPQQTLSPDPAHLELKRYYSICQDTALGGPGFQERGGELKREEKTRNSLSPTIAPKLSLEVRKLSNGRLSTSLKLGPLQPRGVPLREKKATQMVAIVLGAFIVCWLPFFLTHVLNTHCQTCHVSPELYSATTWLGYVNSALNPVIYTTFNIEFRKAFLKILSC

Row | SMILES | inhibition at 0.091 µM [1] | Ki [2] | D2:D3 Selectivity [2] | 5-HT1A receptor affinity/displacement in words [1] | further results
1 | O=C(NCCCCN1CCN(c2ccc(F)cc2)CC1)c1ccc(-c2cscn2)cc1 [Compound 7c] | 12.2 ± 3.1% | 28.6 ± 2.1 nM | 140 | – | –
2 | CCCCN1CCN(c2cc(C#N)ccc2F)CC1 [Compound 3d] | -18 ± 11.1% | 726 ± 101 nM | 7.5 | – | –
3 | CCCCN1CCN(c2ccc(F)cc2)CC1 [Compound 3c] | 5.1 ± 11.2% | 1180 ± 240 nM | 2.6 | – | –
4 | O=C(NCCCCN1CCN(c2ccc(C(F)(F)F)cc2F)CC1)c1ccc(-c2cscn2)cc1 [Compound 7e] | 7.6 ± 6.5% | 30.9 ± 2.6 nM | – | – | efficacy in β-arrestin binding assay [3]: antagonists; efficacy in adenylyl cyclase inhibition assay [4]: antagonists
5 | O=C(NCCCCN1CCN(c2cccc(Cl)c2Cl)CC1)c1ccc2c(c1)Cc1ccccc1-2 [NGB 2904] | – | – | – | – | Ki [5]: 2 nM
6 | O=C(NCCCCN1CCN(c2ccc(F)cc2OCCF)CC1)c1ccc(-c2cscn2)cc1 [Compound 7f] | 37.1 ± 24.4% | 4.8 ± 0.28 nM | 72.9 | substantial affinity | –
7 | O=C(NCCCCN1CCN(c2ccc(C(F)(F)F)cc2F)CC1)c1ccc(-c2ccsc2)cc1 [Compound 6e] | 6.1 ± 6.8% | 43.3 ± 9.2 nM | >1800 | – | –
8 | CCCCN1CCN(c2ccc(C(F)(F)F)cc2F)CC1 [Compound 3e] | -11.6 ± 15.4% | 1410 ± 59.1 nM | 5.3 | – | –
9 | N#Cc1ccc(F)c(N2CCN(CCCCNC(=O)c3ccc(-c4cscn4)cc3)CC2)c1 [Compound 7d] | -5.6 ± 18.3% | 28.1 ± 0.8 nM | 274 | – | –
10 | O=C(NCCCCN1CCN(c2ccc(F)cc2)CC1)c1ccc(-c2ccsc2)cc1 [Compound 6c] | -7.7 ± 23.5% | 12.4 ± 1.6 nM | 579 | – | efficacy in β-arrestin binding assay [3]: very weak partial agonist/antagonist; efficacy in adenylyl cyclase inhibition assay [4]: weak partial agonist
11 | CCCCN1CCN(c2cccc(F)c2)CC1 [Compound 3b] | 36.1 ± 2.1% | 1000 ± 118 nM | 2.5 | partially displace | –
12 | CCCCN1CCN(c2ccccc2F)CC1 [Compound 3a] | 20.3 ± 16.2% | 96.2 ± 16.9 nM | 4.0 | partially displace; also recorded: moderate affinity | Ki [1]: 67.8 ± 4.6 nM
13 | CCCCN1CCN(c2ccc(F)cc2OCCF)CC1 [Compound 3f] | 1.7 ± 21.7% | 351 ± 42.1 nM | 1.0 | – | –
14 | O=C(NCCCCN1CCN(c2ccccc2F)CC1)c1ccc(-c2cscn2)cc1 [Compound 7a] | 65.8 ± 5% | 2.5 ± 0.22 nM | 190 | substantial affinity; also recorded: increased affinity | Ki ([1]; full competition curve, [3H]-8-hydroxy-DPAT, at least three experiments, read-out: Ki at 5-HT1A receptor): 14.3 ± 7.1 nM
15 | N#Cc1ccc(F)c(N2CCN(CCCCNC(=O)c3ccc(-c4ccsc4)cc3)CC2)c1 [Compound 6d] | 2.5 ± 3.5% | 15.5 ± 1.3 nM | 290 | – | efficacy in β-arrestin binding assay [3]: antagonists; efficacy in adenylyl cyclase inhibition assay [4]: antagonists
16 | O=C(NCCCCN1CCN(c2ccc(F)cc2OCCF)CC1)c1ccc(-c2ccsc2)cc1 [Compound 6f] | 16.9 ± 24.4% | 6.1 ± 0.2 nM | 67.4 | – | –
17 | O=C(NCCCCN1CCN(c2cccc(F)c2)CC1)c1ccc(-c2cscn2)cc1 [Compound 7b] | 74.1 ± 5.3% | 24 ± 5.5 nM | 165 | substantial affinity | –
18 | O=C(NCCCCN1CCN(c2ccccc2OCCF)CC1)c1ccc(-c2ccsc2)cc1 [LS-3-134] | – | – | – | – | % of maximum efficacy, adenylyl cyclase inhibition assay [6]: 35% and 34.4 ± 1.7%
19 | O=C(NCCCCN1CCN(c2cccc(F)c2)CC1)c1ccc(-c2ccsc2)cc1 [Compound 6b] | 74.7 ± 1.9% | 7.9 ± 1.4 nM | 296 | substantial affinity | efficacy in β-arrestin binding assay [3]: weak partial agonists; efficacy in adenylyl cyclase inhibition assay [4]: weak partial agonists
20 | O=C(NCCCCN1CCN(c2cccc(Cl)c2Cl)CC1)c1ccc(-c2ccccn2)cc1 [PG 01037] | – | – | – | – | Ki [5]: 0.7 nM
